Experimental data from paper PMC11117660, “Novel Angiotensin-Converting Enzyme-Inhibitory Peptides Obtained from Trichiurus lepturus: Preparation, Identification and Potential Antihypertensive Mechanism” (Biomolecules, 2024).
pIC50: −log10 of the molar value. Where two headings read alike, the source gives them in different places. Where no end group is shown, it is not given here.

Assays:
[1] = target: T1, Angiotensin I-converting enzyme (ACE) (Oryctolagus cuniculus, UniProt P12822); experiment: ACE-inhibitory activity (FAPGG substrate, absorbance at 340 nm); format: biochemical, rabbit; details: synthetic peptides, Figure 7; experiments in triplicate
T1 construct: sourced from rabbit lungs; purchased Sigma-Aldrich (St. Louis, MO, USA); host or cells: rabbit lung tissue
T1 sequence (P12822 34-1310): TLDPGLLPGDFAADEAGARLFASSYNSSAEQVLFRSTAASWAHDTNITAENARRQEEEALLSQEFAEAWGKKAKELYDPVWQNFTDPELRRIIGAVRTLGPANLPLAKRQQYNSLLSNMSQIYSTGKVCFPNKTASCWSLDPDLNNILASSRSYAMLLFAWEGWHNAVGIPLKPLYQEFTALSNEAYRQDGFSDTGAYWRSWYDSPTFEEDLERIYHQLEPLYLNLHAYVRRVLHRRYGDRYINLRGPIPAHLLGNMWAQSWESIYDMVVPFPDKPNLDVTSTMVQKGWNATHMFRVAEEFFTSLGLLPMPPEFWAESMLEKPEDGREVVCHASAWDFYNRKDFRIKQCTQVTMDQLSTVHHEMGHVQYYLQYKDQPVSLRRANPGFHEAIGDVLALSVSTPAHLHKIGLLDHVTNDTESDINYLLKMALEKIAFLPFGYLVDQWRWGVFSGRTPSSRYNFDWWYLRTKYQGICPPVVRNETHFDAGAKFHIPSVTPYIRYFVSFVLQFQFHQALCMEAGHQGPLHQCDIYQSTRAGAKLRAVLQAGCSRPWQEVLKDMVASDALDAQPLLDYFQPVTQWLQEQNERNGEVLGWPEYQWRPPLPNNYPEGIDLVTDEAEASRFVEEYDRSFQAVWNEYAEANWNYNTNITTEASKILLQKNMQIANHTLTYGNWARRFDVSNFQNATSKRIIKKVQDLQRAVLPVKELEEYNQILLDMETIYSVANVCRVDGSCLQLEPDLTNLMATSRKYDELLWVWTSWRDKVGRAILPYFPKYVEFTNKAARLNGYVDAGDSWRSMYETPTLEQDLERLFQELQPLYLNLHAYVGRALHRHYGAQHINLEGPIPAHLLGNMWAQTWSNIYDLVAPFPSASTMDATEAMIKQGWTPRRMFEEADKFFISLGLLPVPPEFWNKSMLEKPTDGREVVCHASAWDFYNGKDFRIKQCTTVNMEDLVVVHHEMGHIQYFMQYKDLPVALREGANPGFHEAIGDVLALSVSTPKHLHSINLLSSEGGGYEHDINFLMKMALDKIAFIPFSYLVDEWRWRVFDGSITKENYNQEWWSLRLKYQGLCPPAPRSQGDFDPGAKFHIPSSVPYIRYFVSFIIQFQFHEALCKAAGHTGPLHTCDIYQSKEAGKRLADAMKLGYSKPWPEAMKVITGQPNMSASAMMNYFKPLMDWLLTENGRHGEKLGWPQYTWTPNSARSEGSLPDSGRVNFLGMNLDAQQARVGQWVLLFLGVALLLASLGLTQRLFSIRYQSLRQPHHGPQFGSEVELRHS
Description: ACE-inhibitory activity was assessed by following the experimental procedure reported by Dou et al., with slight modifications. […] The negative control group was substituted with 100 μL of borate-buffered HEPES. The initial absorbance values of a1 and b1 for both the blank and sample groups were then measured at 340 nm (Thermo Fisher, Waltham, MA, USA). The sample group was then incubated at 37 °C for 30 min, and subsequently, the absorbance values were read again at 340 nm (a2, b2). […] The initial absorbance of the blank: a1-blank; b1-sample. a2: the absorbance values after incubation at 37 °C for 30 min. a2: blank; b2: samples.

[2] = target: T1, Angiotensin I-converting enzyme (ACE); experiment: In vitro simulated oral gastrointestinal digestion, ACE-inhibition read-out; format: biochemical, rabbit; details: initially (before digestion), captopril as reference, Figure 5b
Description: ACE-inhibitory activity was assessed by following the experimental procedure reported by Dou et al., with slight modifications. A solution of borate-buffered HEPES (50 mM, pH 8.3) was dispensed into a 96-well plate, followed by the addition of samples (100 µL), ACE (50 µL, 0.1 U/mL, prepared from 50 mM borate buffer pH 8.3), and FAPGG(N-[3-(2-Furyl)acryloyl]-Phe-Gly-Gly) (50 µL, 1 mM) into each well. The negative control group was substituted with 100 µL of borate-buffered HEPES. The initial absorbance values of a1 and b1 for both the blank and sample groups were then measured at 340 nm (Thermo Fisher, Waltham, MA, USA). The sample group was then incubated at 37 °C for 30 min, and subsequently, the absorbance values were read again at 340 nm (a2, b2). (1) ACE inhibition rate=A−B/A×100% where A = a1 − a2, and B = b1 − b2. The initial absorbance of the blank: a1—blank; b1—sample. a2: the absorbance values after incubation at 37 °C for 30 min. a2: blank; b2: samples.
The in vitro digestion process was utilized. A quantity of 1 mg of the sample was dissolved in 1 mL of water and preheated in a water bath at 37 °C. Then, it was mixed with 1 mL of artificial saliva whose pH was adjusted to pH 6.8. The mixture was then agitated at 100 rpm for 1 min at 37 °C. Subsequently, the pH was adjusted to pH 2.0 using 1 M HCl and added in equal amounts to the simulated gastric digest. […]

[3] = tested on: ACE; details: cited from earlier work
Description: According to the literature, ACE-inhibitory peptides with an IC50 between about 0.32 and 1000 μM have the potential to lower blood pressure. […] We therefore hypothesized that the peptides from FAGDDAPR, QGPIGPR, and GPTGPAGPR may have antihypertensive effects. […] Subsequently, peptides from the ribbonfish hydrolysates were isolated and identified through a combination of filtration and gel filtration chromatography techniques. […] Similarly, Dong et al. used alkaline protease to hydrolyze tilapi ...

[4] = literature examples of antihypertensive peptides, the reference is not clearly printed, read-out: IC50

For FAGDDAPR [FAGDDAPR], the pIC50 [1] was 3.58 and the “ACE-inhibitory activity lower than that of captopril” value [2] was 31.17%.
In the case of FRVW, the pIC50 ([3]; from Pinctada fucata, read-out: ACE-inhibitory IC50) is given as 4.74.
In the case of GPTGPAGPR [GPTGPAGPR], the pIC50 [1] was 3.77.
In the case of LEPWR, the pIC50 ([3]; from Pacific saury neutral protease hydrolysate, read-out: ACE-inhibitory IC50) is listed as 4.00.
Work on QGPIGPR [QGPIGPR] yielded a pIC50 [1] of 4.09.
In the case of VGINYW, the pIC50 [3, 4] is given as 4.82.
For “VGLFPSRSF [literature oligopeptide from tilapia (Oreochromis niloticus) skin hydrolysate]”, the pIC50 ([3]; from tilapia skin alkaline protease hydrolysate, read-out: ACE-inhibitory IC50) is given as 4.21.
For WAGP, the pIC50 [3, 4] is given as 3.85.
